Assay results as given in US5574010A, “Treatment of pancreatic tumors with peptide YY and analogs thereof” (The Regents of The University of California, priority 1994, dated 1996).

Assays:
human Mia PaCa-2 cells = test: In vivo growth inhibition of orthotopically transplanted pancreatic ductal adenocarcinoma; conditions: male athymic mice, orthotopic Mia PaCa-2; 200 pmol/kg/hr via mini-osmotic pumps for four weeks; vs saline control
Procedure: The human pancreatic ductal adenocarcinoma Mia Paca-2 was examined for in vivo growth inhibition by peptide YY and Analog #1. Seventy thousand to 100,000 human Mia PaCa-2 cells were orthotopically transplanted into 48 male athymic mice. After one week, the animals were treated with either PYY or Analog #1 at 200 pmol/kg/hr via mini-osmotic pumps for four weeks. The paired cultures received saline. At sacrifice, both tumor size and mass were measured. Control mice had significant human cancer growth within the pancreas as evidenced by histologic sections. At 9 weeks, ninety percent (90%) of control mice had substantial metastatic disease.

MiaPaCa-2 = test: MTT viability assay, in vitro anti-proliferative activity; type: cell-based, human; conditions: Mia PaCa-2, 36 hours, vs saline control
Procedure: (§1) PANC-1 and MiaPaCa-2 are two human pancreatic adenocarcinomas cancer cell lines which are available commercially from suppliers such as American Type Culture Collection, ATCC (Rockville, Md.). For this example, the two tumor cells were grown in RPMI-1640 culture media supplemented with 10% fetal bovine serum, 29.2 mg/L of glutamine, 25 μg gentamicin, 5 ml penicillin, streptomycin, and fungizone solution (JRH Biosciences, Lenexa, Kans.) at 37° Celsius in a NAPCO water jacketed 5 % CO2 incubator. All cell lines were detached with 0.25 % trypsin (Clonetics, San Diego, Calif.) once to twice a week when a confluent monolayer of tumor cells was achieved. Cells were pelleted for 7 minutes at 500 g in a refrigerated centrifuge at 4 ° Celsius, and resuspended in trypsin free fortified RPMI 1640 culture media. Viable cells were counted on a hemocytometer slide with trypan blue.
(§2) Ten thousand, 20,000, 40,000 and 80,000 cells of each type were added to 96 well microculture plates (Costar, Cambridge, Mass.) in a total volume of 200 μl of culture media per well. Cells were allowed to adhere for 24 hours prior to addition of the PYY or Analog #1 peptides. Fresh culture media was exchanged prior to addition of peptides. In vitro incubation of pancreatic tumor cells with either PYY or Analog #1 was continued for 6 hours and 36 hours in length. PYY was added to cells at doses of 250 pmol, 25 pmol, and 2.5 pmol per well (N =14). Analog #1 was added to cells cultures at doses of 400 pmol, 40 pmol, and 4 pmol per well. Control wells received 2 μl of 0.9% saline to mimic the volume and physical disturbance upon adhered tumor cells. Each 96 well plate contained 18 control wells to allow for comparison within each plate during experimentation. Ninety-six (96) well plates were repeated 6 times with varying concentrations of PYY and Analog #1 in both the PANC-1 and MiaPaCa-2 cells.
(§3) At the end of the incubation period, 3-(4,5-dimethylthiazolyl-2-yl)-2,5-diphenyltetrazolium Bromide, MTr tetrazolium bromide (Sigma, St. Louis, Mo.) was added to fresh culture media at 0.5 mg/ml. Culture media was exchanged and tumor cells were incubated for 4 hours with MTT tetrazolium bromide at 37° Celsius. At the end of incubation, culture media was aspirated. Formazon crystal precipitates were dissolved in 200 μl of dimethyl sulfoxide (Sigma, St. Louis, Mo.). Quantitation of solubilized formazon was performed by obtaining absorption readings at […] wavelength on an ELISA reader (Molecular Devices, Menlo Park, Calif.). The MTT assay measures mitochondrial NADH dependent dehydrogenase activity, and it has been among the most sensitive and reliable method to quantitative in vitro chemotherapy responses of tumor cells. (Alley, M. C., Scudiero, D. A., Monk, A., Hursey, M. L., Dzerwinski, M. J., Fine, D. L., Abbott, B. J., Mayo, J. G., Shoemaker, R. H. and Boyd, M. R., Feasibility of drug screening with panels of human tumor cell lines using a microculture tetrazolium assay Cancer Res., 48:589-601, 1988; Carmichael, J., DeGraff, W. G., Gazdar, A. F., Minna, J. D. and Mitchell, J. B., Evaluation of a tetrazolium-based semiautomated colorimetric assay: Assessment of chemosensitivity testing. Cancer Res., 47:936-942, 1987; McHale, A. P., McHale, L., Use of a tetrazolium based colorimetric assay in assessing photoradiation therapy in vitro. Cancer Lett., 41:315-321, 1988; and Saxton, R. E., Huang, M. Z., Plante D., Fetterman, H. F., Lufkin, R. B., Soudant, J., Castro, D. J., Laser and daunomycin chemophototherapy of human carcinoma cells. J. Clin. Laser Med. and Surg., 10(5):331-336, 1992.)
(§4) Analysis of absorption readings at 550 nm were analyzed by grouping wells of the same test conditions and verifying differences occurring between control and the various peptide concentration treatments by one-way ANOVA. Once statistical significance was achieved, P <0.05, each test group was compared to its paired control group by Student's T-test within each 96 well plate. […]

PANC-1 = test: as above; type: cell-based, human; conditions: 36 hours, vs saline control
Procedure: as §1, §2, §3, §4

“PYY: 36 amino acid residue peptide amide isolated originally from porcine intestine; the species of the PYY tested is not stated [Peptide YY]” was tested, and the Tumor mass decreased (human Mia PaCa-2 cells) was 27%, the “Percent Reduction in Tumor Growth(%) Compared to Control” value (MiaPaCa-2; 2.5 pmol per well) was 0.5% and the “Percent Reduction in Tumor Growth(%) Compared to Control” value (MiaPaCa-2; 25 pmol per well) was 12.8%. The “Percent Reduction in Tumor Growth(%) Compared to Control” value (MiaPaCa-2; 250 pmol per well) was 15.4%, the “Percent Reduction in Tumor Growth(%) Compared to Control” value (PANC-1; 2.5 pmol per well) was 9.8% and the “Percent Reduction in Tumor Growth(%) Compared to Control” value (PANC-1; 25 pmol per well) was 14.7%. The “Percent Reduction in Tumor Growth(%) Compared to Control” value (PANC-1; 250 pmol per well) was 25.7%.
